# Results: patent US11957680B2, “Pyruvate kinase activators for use in treating blood disorders” (Agios Pharmaceuticals, Inc., priority 2017, dated 2024)
# How the values were obtained:
# PKR R510Q = PKR R510Q (Homo sapiens, UniProt P30613, R510Q); test: PKR mutant assay (R510Q), AC50, LDH/NADH-coupled, absorbance at 340 nm; type: biochemical; conditions: Table 4; AC50, enzyme assay; read-out: PK R510Q
# Procedure, shortened: (§1)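 LDH/NADH-coupled read-out at 340 nm after ADP (0.2-1.65 mM) addition at room temperature. Beforehand, wild-type, K410E or R510Q human PKR (40-400 ng/well) sat 60 min with compound (top 100 μM, 3-fold, 11 points) plus PEP 0.1-0.5 mM, 180 μM NADH in 50 mM Tris pH 7.5, 100 mM KCl, 5 mM MgCl2, 1 mM DTT, 0.03% BSA.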
# wild type PKR [1] = target: T1, wild type PKR (Homo sapiens, UniProt P30613); test: Cell based ATP assay in purified red blood cells (Cell-Titer-Glo); set-up: endogenous in cells; host or cells: purified red blood cells from healthy volunteers; conditions: Table 4; AC50, RBCs, overnight at 37° C., ATP levels
# T1 sequence (P30613 whole entry): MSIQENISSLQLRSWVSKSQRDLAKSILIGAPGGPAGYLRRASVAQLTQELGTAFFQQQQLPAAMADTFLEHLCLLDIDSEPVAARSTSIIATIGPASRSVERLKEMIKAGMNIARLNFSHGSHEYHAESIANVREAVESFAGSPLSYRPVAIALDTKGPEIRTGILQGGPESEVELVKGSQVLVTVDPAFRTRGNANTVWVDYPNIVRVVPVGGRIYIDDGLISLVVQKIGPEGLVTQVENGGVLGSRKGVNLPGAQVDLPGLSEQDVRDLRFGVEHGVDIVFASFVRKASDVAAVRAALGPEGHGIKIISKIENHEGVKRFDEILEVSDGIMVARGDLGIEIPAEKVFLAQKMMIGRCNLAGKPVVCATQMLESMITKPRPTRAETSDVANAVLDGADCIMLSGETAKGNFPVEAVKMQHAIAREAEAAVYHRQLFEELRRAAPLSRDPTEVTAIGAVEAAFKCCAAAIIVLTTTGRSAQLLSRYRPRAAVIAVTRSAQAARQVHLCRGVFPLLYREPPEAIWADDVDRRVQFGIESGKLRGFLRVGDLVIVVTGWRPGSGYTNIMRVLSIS
# Procedure, shortened: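 ATP levels were quantified by Cell-Titer-Glo after overnight 37 °C exposure of cells to compound (1:4 dilution series, 0.1% DMSO final). The cells were human erythrocytes, filter-purified to remove leukocytes and plated at 1×10^7 cells/mL in AGAM medium.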
# PKR K410E = PKR K410E (Homo sapiens, UniProt P30613, K410E); test: PKR mutant assay (K410E), AC50, LDH/NADH-coupled, absorbance at 340 nm; type: biochemical; conditions: Table 4; AC50, enzyme assay
# Sequence of PKR K410E (P30613 whole entry K410E): as the sequence (P30613 whole entry) above, with K410E counted along it
# Procedure, shortened: as §1
# wild type PKR [2] = target: T1, wild type PKR; test: PKR (wild type) enzyme AC50 assay, LDH/NADH-coupled, absorbance at 340 nm; type: biochemical; conditions: Table 4; AC50, enzyme assay; read-out: PKR WT
# Procedure, shortened: as §1
# Sequence of PKR R510Q (P30613 whole entry R510Q): as the sequence (P30613 whole entry) above, with R510Q counted along it
EC50 (PKR R510Q) [nM],EC50 (wild type PKR [1]) [nM],EC50 (PKR K410E) [nM],EC50 (wild type PKR [2]) [nM],Structure (SMILES)
< 300,≤ 1000,< 300,< 300,Cn1c2nc(Cc3cc[nH]n3)sc2c2cnn(Cc3ccccc3)c(=O)c21 [Compound 193]
< 300,≤ 1000,< 300,< 300,CC(c1cc[nH]n1)c1nc2c(s1)c1cnn(Cc3cccc4[nH]ncc34)c(=O)c1n2C (stereo not drawn) [Compound 195]
< 300,≤ 1000,< 300,< 300,Cn1c2nc(Cc3ncsc3C(N)=O)sc2c2cnn(Cc3cccc4[nH]ncc34)c(=O)c21 [Compound 196]
< 300,≤ 1000,< 300,< 300,Cn1c2nc(Cc3cc[nH]n3)sc2c2cnn(Cc3nccc4[nH]ncc34)c(=O)c21 [Compound 199]
> 800,≤ 1000,< 300,< 300,Cn1c2nc(Cc3cc[nH]c(=O)c3)sc2c2cnn(Cc3cccc4[nH]ncc34)c(=O)c21 [Compound 200]
< 300,≤ 1000,< 300,< 300,Cn1ncc2c(Cn3ncc4c5sc(Cc6cc[nH]n6)nc5n(C)c4c3=O)cccc21 [Compound 201]
< 300,≤ 1000,< 300,< 300,Cn1c2nc(Cc3cc[nH]n3)sc2c2cnn(Cc3cccc4nn[nH]c34)c(=O)c21 [Compound 202]
< 300,≤ 1000,< 300,< 300,Cn1c2nc(Cc3c[nH]cn3)sc2c2cnn(Cc3cccc4[nH]ncc34)c(=O)c21 [Compound 205]
> 800,> 1000,> 800,> 800,Cn1c2nc(Cc3csc(C(N)=O)n3)sc2c2cnn(Cc3cccc4[nH]ncc34)c(=O)c21 [Compound 206]
> 800,≤ 1000,301 to 800,301 to 800,COc1ncc(Cc2nc3c(s2)c2cnn(Cc4cccc5[nH]ncc45)c(=O)c2n3C)cn1 [Compound 207]
> 800,> 1000,> 800,> 800,CN(c1csc(Cc2cnc(=O)[nH]c2)n1)c1ccnn(Cc2cccc3[nH]ncc23)c1=O [Compound 208]
> 800,≤ 1000,> 800,> 800,Cn1c2nc(Cc3ccns3)sc2c2cnn(Cc3cccc4[nH]ncc34)c(=O)c21 [Compound 209]
< 300,≤ 1000,< 300,< 300,Cn1c2nc(Cc3cc[nH]n3)sc2c2cnn(Cc3ccc4ccccc4c3)c(=O)c21 [Compound 210]
< 300,≤ 1000,< 300,< 300,Cn1c2nc(Cc3cncs3)sc2c2cnn(Cc3cccc4[nH]ncc34)c(=O)c21 [Compound 211]
< 300,≤ 1000,< 300,< 300,Cn1c2nc(C(C(N)=O)c3cc[nH]n3)sc2c2cnn(Cc3cccc4[nH]ncc34)c(=O)c21 (stereo not drawn) [Compound 212]
301 to 800,≤ 1000,301 to 800,301 to 800,Cn1c2nc(Cc3cc[nH]n3)sc2c2cnn(Cc3cn4cccnc4n3)c(=O)c21 [Compound 213]
< 300,≤ 1000,< 300,< 300,COc1cc(Cc2nc3c(s2)c2cnn(Cc4cccc5[nH]ncc45)c(=O)c2n3C)ccn1 [Compound 215]
< 300,≤ 1000,< 300,< 300,Cn1c2nc(Cc3cnn[nH]3)sc2c2cnn(Cc3cccc4[nH]ncc34)c(=O)c21 [Compound 217]
< 300,≤ 1000,< 300,< 300,COc1ncccc1Cc1nc2c(s1)c1cnn(Cc3cccc4[nH]ncc34)c(=O)c1n2C [Compound 219]
< 300,≤ 1000,< 300,< 300,Cn1c2nc(Cc3ncsc3Br)sc2c2cnn(Cc3cccc4[nH]ncc34)c(=O)c21 [Compound 220]
301 to 800,> 1000,< 300,< 300,Cn1c2nc(Cc3nnco3)sc2c2cnn(Cc3cccc4[nH]ncc34)c(=O)c21 [Compound 221]
< 300,≤ 1000,< 300,< 300,Cn1c2nc(Cc3nccs3)sc2c2cnn(Cc3cccc4[nH]ncc34)c(=O)c21 [Compound 222]
< 300,≤ 1000,< 300,< 300,Cn1ncc2cc(Cn3ncc4c5sc(Cc6cc[nH]n6)nc5n(C)c4c3=O)ccc21 [Compound 224]

EC50 (PKR R510Q) [nM],EC50 (wild type PKR [1]) [nM],EC50 (PKR K410E) [nM],EC50 (wild type PKR [2]) [nM],Structure (SMILES)
< 300,≤ 1000,< 300,< 300,Cn1c2nc(Cc3cccc4[nH]nnc34)sc2c2cnn(Cc3cccc4[nH]ncc34)c(=O)c21 [Compound 225]
< 300,≤ 1000,< 300,< 300,Cn1c2nc(Cc3cc[nH]n3)sc2c2cnn(Cc3ccc4c(c3)OCO4)c(=O)c21 [Compound 226]
< 300,≤ 1000,< 300,< 300,Cn1c2nc(Cc3cscn3)sc2c2cnn(Cc3cccc4[nH]ncc34)c(=O)c21 [Compound 227]
< 300,≤ 1000,< 300,< 300,Cn1c2nc(Cc3ccc[nH]c3=O)sc2c2cnn(Cc3cccc4[nH]ncc34)c(=O)c21 [Compound 228]
301 to 800,> 1000,301 to 800,301 to 800,Cn1c2nc(Cc3cnc(N)s3)sc2c2cnn(Cc3cccc4[nH]ncc34)c(=O)c21 [Compound 229]
< 300,≤ 1000,< 300,< 300,Cn1c2nc(Cc3nc[nH]n3)sc2c2cnn(Cc3cccc4[nH]ncc34)c(=O)c21 [Compound 230]
< 300,≤ 1000,< 300,< 300,Cn1c2nc(Cc3cc(Cl)[nH]n3)sc2c2cnn(Cc3cccc4[nH]ncc34)c(=O)c21 [Compound 233]
< 300,> 1000,< 300,< 300,Cn1c2nc(Cc3cc(F)[nH]n3)sc2c2cnn(Cc3cccc4[nH]ncc34)c(=O)c21 [Compound 234]
< 300,≤ 1000,< 300,< 300,Cn1c2nc(Cc3cc[nH]n3)sc2c2cnn(Cc3cccc4sc(N)nc34)c(=O)c21 [Compound 235]
< 300,≤ 1000,< 300,< 300,Cn1c2nc(Cc3n[nH]cc3F)sc2c2cnn(Cc3cccc4[nH]ncc34)c(=O)c21 [Compound 236]
< 300,≤ 1000,< 300,< 300,Cn1c2nc(Cc3cc[nH]n3)sc2c2cnn(Cc3ccc4scnc4c3)c(=O)c21 [Compound 237]
301 to 800,≤ 1000,> 800,301 to 800,Cn1c2nc(Cc3cnco3)sc2c2cnn(Cc3cccc4[nH]ncc34)c(=O)c21 [Compound 240]
< 300,≤ 1000,< 300,< 300,Cn1c2nc(Cc3cccc4cn[nH]c34)sc2c2cnn(Cc3cc[nH]n3)c(=O)c21 [Compound 241]
< 300,≤ 1000,< 300,< 300,Cn1c2nc(Cc3n[nH]cc3Cl)sc2c2cnn(Cc3cccc4[nH]ncc34)c(=O)c21 [Compound 244]
< 300,≤ 1000,301 to 800,301 to 800,Cn1c2nc(Cc3cccc4[nH]c(=O)[nH]c34)sc2c2cnn(Cc3cccc4[nH]ncc34)c(=O)c21 [Compound 245]
< 300,≤ 1000,< 300,< 300,Cn1c2nc(Cc3cc[nH]n3)sc2c2cnn(Cc3cccc4[nH]ccc34)c(=O)c21 [Compound 246]
< 300,≤ 1000,< 300,< 300,Cn1c2nc(Cc3cc[nH]n3)sc2c2cnn(Cc3cccc4[nH]c(=O)[nH]c34)c(=O)c21 [Compound 252]
< 300,≤ 1000,< 300,< 300,Cn1c2nc(Cc3cc[nH]n3)sc2c2cnn(Cc3cccc4c3CNC4)c(=O)c21 [Compound 253]
< 300,≤ 1000,< 300,< 300,Cn1c2nc(Cc3cc[nH]n3)sc2c2cnn(Cc3ccc(O)c(N)c3)c(=O)c21 [Compound 256]
< 300,≤ 1000,< 300,< 300,Cn1ccc(Cn2ncc3c4sc(Cc5cccc6cn[nH]c56)nc4n(C)c3c2=O)n1 [Compound 258]
< 300,≤ 1000,< 300,< 300,Cn1c2nc(Cc3ccccn3)sc2c2cnn(Cc3ccccc3)c(=O)c21 [Compound 263]
< 300,≤ 1000,< 300,< 300,Cn1c2nc(Cc3cscn3)sc2c2cnn(Cc3ccccc3)c(=O)c21 [Compound 270]
